For 62 compounds, IC50 results are on record in PubChem BioAssay AID2305 (GlaxoSmithKline (GSK), 2010).

Where “and” joins values, the source holds several entries; their conditions need not be identical. Equal entries are not always repeated.

The experiment deals with P. falciparum 3D7 growth, pLDH absorbance. The experiment is described as follows: P. falciparum 3D7 growth inhibition, dose response, strain 3D7 (AID 2305).

What is called IC50 is the concentration that inhibits the measured activity by half. A lower IC50 goes with higher potency. Consider `CC1CN(c2cc(=O)n(Cc3ccc(NC(=O)Nc4ccc(-c5ccccc5)cc4)cc3)cn2)CC(C)N1` (configuration not stated), for which the IC50 is 970 nM.

In the case of `O=C(Nc1cccc(C(F)(F)F)c1)Nc1ccc2nonc2c1`, the IC50 was determined as 850 nM.

As for `O=C(NOCCOc1ccccc1)c1ccccc1`, the IC50 stood at 320 nM.

`Cc1ccc(C2CCN(CCCCNC(=O)c3ccc(NC(=O)c4ccc(Cl)cc4)cc3)CC2)c(OCC2CC2)c1` had an IC50 of 890 nM.

As for `Cc1cccc2[nH]c(-c3ccc(-c4ccc(NC(=O)C(C)CN5CCN(C)CC5)cc4)s3)nc12` (configuration not stated), the IC50 was found to be 730 nM.

Compound `CS(=O)(=O)CCNc1nccc(N2CCc3ncnc(Nc4ccc(OCc5cccc(F)c5)c(Cl)c4)c3C2)n1` gave an IC50 of 130 nM.

`Cc1ccc(C)c(NC(=O)CC2C(=O)N(c3ccccc3)C(=S)N2Cc2ccco2)c1` (configuration not stated) yielded a half-inhibitory concentration (IC50) of 570 nM.

Consider `Oc1ccc2[nH]c(-c3cccs3)nc2c1CN1CCC(N2CCCC2)CC1`, for which the IC50 worked out at 640 nM.

Turning to `CC1CCC(C(C)C)C(OC(=O)CSc2nnc3c(n2)[nH]c2ccccc23)C1` (configuration not stated), the IC50 was determined as 930 nM.

`COc1ccc(CNCc2ccccc2)cc1-c1ccc(OC)c(S(=O)(=O)NCCN2CCCC2)c1`: the half-maximal inhibitory concentration (IC50) came to 830 nM.

For `Cc1[nH]c(CNCCCNc2cc(=O)c3ccccc3[nH]2)c(Br)c1Br`, the 50% inhibitory concentration (IC50) amounted to 1040 nM.

`O=C(NCCCCN1CCC(c2ccc3c(c2OCc2ccncc2)CCCC3)CC1)c1ccc(-c2ccc(C(F)(F)F)cc2)cc1`: the concentration for half-maximal inhibition (IC50) worked out at 170 nM.

As for `O=C(c1cccc(-c2cccc(-c3nc4ccccc4[nH]3)c2)c1)N1CCCCC1CN1CCC(O)C1` (configuration not stated), the IC50 worked out at 730 nM.

In turn, `Cc1ccc2nc(-c3cc(-c4cccc(C#N)c4)cnc3N)[nH]c2c1` came in with a half-inhibitory concentration (IC50) of 120 nM.

Take `Nc1nccc2ccc(-c3ccsc3)cc12`: the half-maximal inhibitory concentration (IC50) came out at 330 nM.

The compound `COc1ccc2nc(C)cc(Nc3ccc(Oc4ccc(Br)c5ccccc45)c(Cl)c3)c2c1` gave an IC50 of 280 nM.

Compound `CCCCCC(C)C(C)c1cc(O)c2c(c1)OC(C)(C)CC2(O)c1ccnn1C` (configuration not stated) had an IC50 of 960 nM.

`COc1ccc2c(=O)c(Br)c(C)[nH]c2c1`: the IC50 turned out to be 190 nM.

`CCCN(Cc1nnc(-c2cccs2)o1)C(=O)CSc1nnnn1-c1ccc(C)c(C)c1` returned an IC50 of 580 nM.

`O=C(NCCc1ccccc1)N(Cc1ccc(-c2cccc(CN3CCNCC3)c2)cc1)C1CCN(Cc2ccccc2)CC1` gave an IC50 of 1360 nM.

In turn, `CCC(C)CN1CCC(N(C)c2cc(NC(=O)c3cccc(C)c3)ccn2)CC1` (configuration not stated) displayed a concentration for half-maximal inhibition (IC50) of 940 nM.

`CCCCCCCC1CCN(C[C@H](O)c2ccnc3ccc(OC)cc23)CC1` showed a half-maximal inhibitory concentration (IC50) of 960 nM.

In turn, `Nc1c(Cl)cc(C(O)CNCCCCCOCCCc2ccc(O)c3ncccc23)cc1Cl` (configuration not stated) gave an IC50 of 990 nM.

`COc1ccc(-c2cc(C(=O)N3CCc4ccccc43)c3ccccc3n2)cc1OC` displayed a 50% inhibitory concentration (IC50) of 330 nM.

In turn, `CNC(=O)Cc1ccc(C(=O)Nc2cccc(-c3cccc(-c4nc5c(C)cccc5[nH]4)c3)c2)cc1` displayed a half-inhibitory concentration (IC50) of 530 nM.

In turn, `NC(N)=NC(=O)Nc1cc(Br)c(Br)c(Br)c1` showed an IC50 of 810 nM.

The compound `Fc1ccc2nc(-c3cccc(-c4ccc(CN5CCCCC5)cc4)c3)[nH]c2c1` had an IC50 of 160 nM.

For the compound `CC(C)N(C(=O)CSc1nc2cc(Cl)ccc2c(=O)n1Cc1ccccc1)C(C)C`, the half-maximal inhibitory concentration (IC50) was determined as 170 nM.

For the compound `O=C(NOCc1ccccc1)c1cc(Cl)ccc1O`, the IC50 turned out to be 1100 nM.

For the compound `CC[C@H]1CN2CCc3cc(OC)c(OC)cc3[C@@H]2C[C@@H]1CC1=NCCc2c1[nH]c1ccc(OCc3ccccc3)cc21`, the IC50 came out at 770 nM.

In turn, `CCN(CC)CCN(Cc1ccc(-c2ccc(C(F)(F)F)cc2)cc1)C(=O)Cn1nc(-c2ccc(C(F)(F)F)cc2)ccc1=O` gave an IC50 of 800 nM.

Compound `CCCCCCOc1ccc(C(=O)N(Cc2ccccc2)c2c(-c3ccccc3)nc3cc(C)ccn23)cc1` came in with an IC50 of 770 nM.

The compound `O=C(Nc1ccc(F)cc1)N1CCCN(c2ccnc3cc(Cl)ccc23)CC1` displayed an IC50 of 790 nM.

Regarding `CCOc1cc(C)ccc1N1CCN(CCN2CCC(NC(=O)c3ccc(-c4ccc(C#N)cc4)cc3)CC2)CC1`, the IC50 is 1430 nM.

On to `O=c1c2ccccc2[nH]c2nc3ccccc3c(Nc3ccccc3)c12`, for which the IC50 amounted to 140 nM.

Take `COc1ccc(-c2ccccc2OCCCNc2nc(NCCc3ccc(O)cc3)nc(N3CCNCC3)n2)cc1`: the IC50 was 790 nM.

Take `O=C(Nc1cccc(-c2cccc(-c3nc4ccccc4[nH]3)c2)c1)N[C@@H]1C[C@H]1c1ccccc1`: the IC50 was 1070 nM and 900 nM.

For the compound `COc1ccccc1C1CCN(C2CCC(NC(=O)c3cc(-c4ccc(Cl)cc4)cs3)CC2)CC1` (configuration not stated), the IC50 was 380 nM.

`CC(C)(C)c1nn(-c2ccccc2)c2[nH]c(=O)c(CNC3CCCCC3)cc12` came in with an IC50 of 1250 nM.

The compound `CC(C)Cc1cnc2nc(N)nc(N)c2c1` gave an IC50 of 490 nM.

In the case of `CN(C)CCOc1ccc2c(c1)OC(C)(C)C=C2c1cccc2ccccc12`, the IC50 was 780 nM.

As for `COC(=O)COc1cc(C(=O)NCCCCN2CCC(c3ccc4c(c3OC)CCCC4)CC2)ccc1-c1ccc(Cl)cc1`, the IC50 stood at 260 nM.

Take `O=C(Cn1c(SCc2cccc(F)c2F)cc(=O)c2ccccc21)N(Cc1ccc(-c2ccc(C(F)(F)F)cc2)cc1)C1CCN(CCO)CC1`: the IC50 is 1250 nM.

The compound `CCOc1ccc(Br)cc1/C=C/C(=O)Nc1ccc2c(c1)CN(C)CCC2` came in with an IC50 of 820 nM.

`CC1(C)CCNc2cc(NC(=O)c3ccc(-c4ncccc4C(F)(F)F)cc3)ccc21` gave an IC50 of 900 nM.

As for `O=C(Nc1cccc(CN2CCCN(Cc3ccc(O)cc3)CC2)c1)c1ccc(Br)cc1`, the concentration for half-maximal inhibition (IC50) was determined as 800 nM.

As to `Cc1ccc2cc(NC(=O)CCCCCCCON3C(N)=NC(N)=NC34CCCCC4)ccc2n1`, the IC50 came to 90 nM.

In turn, `CC(C)NC(=O)c1cccc(-c2ccc(OCCN3CCCC3c3cc4ccccc4[nH]3)cc2)c1` (configuration not stated) returned an IC50 of 960 nM.

`OC(CNc1ccnc(Nc2ccccc2)n1)c1ccc(C(F)(F)F)cc1` (configuration not stated) gave a half-inhibitory concentration (IC50) of 610 nM.

The compound `CCN(CC)CCN(Cc1ccc(-c2ccc(C(F)(F)F)cc2)cc1)C(=O)Cn1c(CCc2c(F)ccc(F)c2F)nc(=O)c2ccccc21` came in with an IC50 of 240 nM.

`CN(CCCNCc1cccc2ccccc12)CCCNCc1cccc2ccccc12`: the IC50 is 720 nM.

For `CN1CCOc2ccc(Nc3nnc(-c4cccc(-c5cccnc5)c4)o3)cc2C1`, the IC50 worked out at 100 nM.

`CN1CCC(Oc2cc(NC(=O)Nc3ccc(-c4ccncc4)c(C(F)(F)F)c3)ccc2Cl)CC1` gave a half-maximal inhibitory concentration (IC50) of 780 nM.

`COc1cccc2c1CCN(CCN1CCC(NC(=O)c3ccc(-c4cccc(Cl)c4Cl)cc3)CC1)C2` had an IC50 of 700 nM.

`c1cn(CCCNc2ncc(-c3ccsc3)c(-c3nccs3)n2)cn1` had an IC50 of 650 nM.

On to `O=C(c1cccc(-c2cccc(-c3nc4ccc(F)cc4[nH]3)c2)c1)N1CCCCC1CN1CCC(O)C1` (configuration not stated), for which the IC50 was 880 nM.

Turning to `O=C(Nc1cccc(-c2cccc(-c3nc4ccccc4[nH]3)c2)c1)c1ccoc1`, the concentration for half-maximal inhibition (IC50) turned out to be 740 nM.

In turn, `O=C(/C=C/c1ccc(Cl)c(Cl)c1)NCCCCCN1CCC(NC(=O)NC2CCCCCC2)CC1` had an IC50 of 460 nM.

Compound `Cc1cc2nc(-c3ccc(C(=O)NCc4ccc(Cl)c(Cl)c4)cc3)[nH]c2cc1C` came in with an IC50 of 830 nM.

Take `CC(C)N1CCN(C(CN2CCN(CCCOc3cccc(-c4ccccc4)c3)CC2)c2ccc(F)cc2)CC1` (configuration not stated): the IC50 is 890 nM.

Consider `CC(C)(C)c1ccc(C(=O)Nc2cccc(Nc3c(C(=O)NCc4cccc(C(F)(F)F)c4)cnc4c(O)cccc34)c2)cc1`, for which the IC50 came to 1090 nM.

Compound `COc1ccc(Nc2ncc3c(-c4cccc(NC(=O)Cc5cccnc5)c4)c[nH]c3n2)cc1OC` returned an IC50 of 720 nM.
